A word on the solubility: it is how much of the substance goes into solution per volume. A lower solubility goes with a poorly soluble substance. By melting point is commonly meant the temperature, or range, at which the solid turns liquid.

SMILES strings stand for the structures. Converted amounts (≈) assume the structure as drawn. Where two headings read alike, the source gives them in different places.

In data set [1] the test system is lung carcinoma cell line NCI-H460. The experiment in a line: XTT proliferation assay, NCI-H460. Type of data set: cell-based, human. As to conditions: Homo sapiens, read-out: XTT proliferation assay, EC50, NCI-H460. The text has this: (§1) The substances according to the invention were investigated for their antiproliferative activity in a proliferation test on established tumor cell lines. The test used determines the cellular dehydrogenase activity and makes possible a determination of the cell vitality and indirectly the cell count. The cell lines used are the human cervical carcinoma cell line KB/HeLa (ATCC CCL17), the ovarian adenocarcinoma cell line SKOV-3 (ATCC HTB77), the human glioblastoma cell line […] (NCI 503138) and the lung carcinoma cell line NCI-H460 (NCI 503473).
(§2) The adherently growing tumor cell lines KB/HeLa, SKOV-3, SF-268 and NCI-H460 were cultured under standard conditions in a fumigation incubator at 37° C., 5% CO2 and 95% atmospheric humidity. On experimental day 1, the cells are detached using trypsin/EDTA and pelleted by centrifugation. Subsequently, the cell pellet is resuspended in the respective culture medium at the corresponding cell count and reacted in a 96-well microtiter plate. The plates are then cultured overnight in the fumigation incubator. The test substances are prepared as 1 mg/ml stock solutions in DMSO and diluted to the appropriate concentrations on experimental day 2 using culture medium. The substances in culture medium are then added to the cells and incubated in the fumigation incubator for 45 h. As a control, cells which are not treated with test substance are used. For the XTT assay, 1 mg/ml of XTT (sodium 3′-[1-(phenylaminocarbonyl)-3,4-tetrazolium]-bis(4-methoxy-6-nitro)benzenesulfonic acid) is dissolved in RPMI-1640 medium without Phenol Red. Additionally, a 0.383 mg/ml PMS (N-methyldibenzopyrazine methylsulfate) solution in phosphate-buffered saline solution (PBS) is prepared. On experimental day 4, 75 μl/well of XTT-PMS mixture is pipetted onto the cell plates which in the meantime have been incubated with the test substances for 45 h. For this, shortly before use, the XTT solution is mixed with the PMS solution in the ratio 50:1 (vol:vol). The cell plates are then incubated in the fumigation incubator for a further 3 h and the optical density (OD490 nm) is determined in a photometer. By means of the OD490 nm determined, the percentage inhibition is calculated relative to the control and plotted semilogarithmically in the form of a concentration-action curve. The EC50 is calculated by means of a regression analysis from the concentration-action curve using the program Graphpad Prism.
For orientation: Formazan colour is commonly taken as a measure of viable cells.

The nature of another data set: physchem. As to conditions: water, thermodynamic from solid.
Data set [2] relates to ovarian adenocarcinoma cell line SKOV-3. In words: XTT proliferation assay, SKOV-3. As to conditions: Homo sapiens, read-out: XTT proliferation assay, EC50, SKOV3. Type of data set: cell-based, human.
Text: as §1, §2

The nature of data set [3]: Saturation solubility in water. As to conditions: versus comparison substances of WO0208194.
Experimental: (§3) The saturation solubility in water is determined as described below. For incipient dissolution of the substances and to improve wetting of the samples, at most 1% of DMSO is added. To check the content, an HPLC-UV method was used.
Data set [4] deals with human cervical carcinoma cell line KB/HeLa. In words: XTT proliferation assay, KB/HeLa. It counts as cell-based. As to conditions: Homo sapiens, read-out: XTT proliferation assay, EC50, KB/Hela.
Text: as §1, §2

The test system of data set [5] is human glioblastoma cell line SF-268. In words: XTT proliferation assay, SF-268. It counts as cell-based. As to conditions: Homo sapiens, read-out: XTT proliferation assay, EC50, SF-268.
Text: as §1, §2

Data set [6] has as its system bovine tubulin with 30% associated proteins (MAPs). The experiment in a line: Tubulin polymerization assay. It counts as biochemical. As to conditions: tubulin with 30% MAPs, average of two independent experiments. How it is done:
The compounds according to the invention were tested for inhibition of the polymerization of bovine tubulin in an in-vitro test. In this test, tubulin purified by cycles of polymerization and depolymerization is employed, which is polymerized by addition of GTP and warming. In Table 2, the inhibition or EC50 values of the inhibition of polymerization of tubulin with 30% associated proteins (MAPs) are indicated.
The assay is carried out based on the method of Bollag et al. Lyophilized bovine tubulin (cytoskeleton, ML113 tubulin 30% MAPs) is dissolved in a concentration of 2 mg/ml (ML113 in 80 mM PIPES, 0.5 mM EGTA, 2 mM MgCl2, pH 6.9, 1 mM GTP) or 5 mg/ml (TL238 in 80 mM PIPES, 1 mM EGTA, 0.5 mM MgCl2, 20% (v:v) glycerol pH 6.9, 1 mM GTP). The test substances are diluted in 10% DMSO (v:v) and 5 μl of the dilutions are transferred to a 96-well microtiter plate (Nunc, half area plate). After addition of 45 μl of the tubulin solution, the polymerization is determined at 340 nm in a Spectramax 190 microtiter plate reader (Molecular Devices) by means of a kinetics program at 30 sec intervals over a period of 20 min. The resulting area under curve values are used for the calculation of the inhibition with respect to the untreated control. The controls are untreated cells (±induction). Induction was carried out using 3 μM of muristerone A. On day 1, the cells are sown (±muristerone A) and incubated at 37° C. for 24 h. On day 2, the test substance is added (control DMSO) and incubation at 37° C. is continued further 45 h, after which a standard XTT assay is carried out.

The mark [7] stands for this setting: NCI-H460 cells, 45 h incubation.
The mark [8] stands for this setting: SK-OV-3, SKOV-3 cells, 45 h incubation.

Experimental for physchem: as §3

With `O=C(NCCO)Oc1cccc(N2CCN(C(=O)c3c4ccccc4nc4ccccc34)CC2)c1` [Compound 7, 3-[4-(Acridin-9-ylcarbonyl)piperazin-1-yl]phenyl (2-hydroxyethyl)carbamate], the EC50 worked out at 0.036 µg/mL (≈ 0.0765 µM) in data set [1] (setting [7]); 0.019 µg/mL (≈ 0.0404 µM) in data set [2] (setting [8]); 0.029 µg/mL (≈ 0.0616 µM) in data set [4] (KB/HeLa cells, 45 h incubation); 0.031 µg/mL (≈ 0.0659 µM) in data set [5] (SF-268 cells, 45 h incubation). In addition, the solubility in the data set “physchem” was 108 µg/mL (≈ 230 µM). For the same compound, in data set [3], the “Water solubility compared to the comparison substances” value was “greatly improved water solubilities”.

On to `CC(=O)Oc1cccc(N2CCN(C(=O)c3c4ccccc4nc4ccccc34)CC2)c1` [Compound 3, 3-[4-(Acridin-9-ylcarbonyl)piperazin-1-yl]phenyl acetate], for which the EC50 in data set [1] (setting [7]) stood at 0.019 µg/mL; in data set [2] (setting [8]) it was 0.011 µg/mL; in data set [4] (KB/HeLa cells, 45 h incubation) it was 0.013 µg/mL; in data set [5] (SF-268 cells, 45 h incubation), 0.018 µg/mL. Further, the “Inhibition of tubulin polymerization in [% INH at 10 μg/ml] using 30% MAPs” value (“Inhibition … [% INH at 10 μg/ml] using 30% MAPs” for short) in data set [6] came to 87 % INH. In data set [6], the “Inhibition of tubulin polymerization using 30% MAPs, EC50” value (from here on “Inhibition … using 30% MAPs, EC50”) turned out to be 1.35 µg/mL.

With `COC(=O)Oc1cccc(N2CCN(C(=O)c3c4ccccc4nc4ccccc34)CC2)c1` [Compound 5, 3-[4-(Acridin-9-ylcarbonyl)piperazin-1-yl]phenyl methyl carbonate], the EC50 in data set [1] (setting [7]) was 0.021 µg/mL (≈ 0.0476 µM); in data set [2] (setting [8]) it was 0.015 µg/mL (≈ 0.034 µM); in data set [4] (KB/HeLa cells, 45 h incubation), 0.017 µg/mL (≈ 0.0385 µM); in data set [5] (SF-268 cells, 45 h incubation) it was 0.024 µg/mL (≈ 0.0544 µM). Moreover, the “Inhibition … [% INH at 10 μg/ml] using 30% MAPs” value in data set [6] came to 94.3 % INH. For the same compound, in data set [6], the “Inhibition … using 30% MAPs, EC50” value turned out to be 1.08 µg/mL.

`COc1cccc(N2CCN(C(=O)c3c4ccccc4nc4ccc(O)cc34)CC2)c1` [Compound 37, (2-Hydroxyacridin-9-yl)-[4-(3-methoxyphenyl)piperazin-1-yl]methanone]: the EC50 in data set [1] (setting [7]) came out at 0.067 µg/mL (≈ 0.162 µM); in data set [2] (setting [8]), 0.042 µg/mL (≈ 0.102 µM); in data set [4] (KB/HeLa cells, 45 h incubation), 0.064 µg/mL (≈ 0.155 µM); in data set [5] (SF-268 cells, 45 h incubation), 0.076 µg/mL (≈ 0.184 µM). Besides, the “Inhibition … using 30% MAPs, EC50” value in data set [6] amounted to 2.06 µg/mL.

In the case of `O=C(OCCCl)Oc1cccc(N2CCN(C(=O)c3c4ccccc4nc4ccccc34)CC2)c1` [Compound 6, 3-[4-(Acridin-9-ylcarbonyl)piperazin-1-yl]phenyl 2-chloroethyl carbonate], the melting point lay within 162 to 163 °C. Further, the EC50 in data set [1] (setting [7]) came to 0.029 µg/mL (≈ 0.0592 µM). Moreover, in data set [2] (setting [8]), the EC50 amounted to 0.019 µg/mL (≈ 0.0388 µM). The EC50 in data set [4] (KB/HeLa cells, 45 h incubation) was found to be 0.021 µg/mL (≈ 0.0429 µM). In addition, in data set [6], the “Inhibition … [% INH at 10 μg/ml] using 30% MAPs” value amounted to 70 % INH. In data set [5] (SF-268 cells, 45 h incubation), the EC50 turned out to be 0.032 µg/mL (≈ 0.0653 µM).

As to `CS(=O)(=O)Oc1cccc(N2CCN(C(=O)c3c4ccccc4nc4ccccc34)CC2)c1` [Compound 15, 3-[4-(Acridin-9-ylcarbonyl)piperazin-1-yl]phenyl methanesulfonate], the EC50 in data set [1] (setting [7]) is 0.079 µg/mL; in data set [2] (setting [8]), 0.048 µg/mL; in data set [4] (KB/HeLa cells, 45 h incubation) it was 0.078 µg/mL; in data set [5] (SF-268 cells, 45 h incubation) it was 0.069 µg/mL. For the same compound, the “Inhibition … [% INH at 10 μg/ml] using 30% MAPs” value in data set [6] is 94.8 % INH. In data set [6], the “Inhibition … using 30% MAPs, EC50” value was 4.82 µg/mL.

Consider `O=C(c1c2ccccc2nc2ccccc12)N1CCN(c2cccc(OP(=O)([O-])[O-])c2)CC1.[Na+].[Na+]` [Compound 33, Mono-{3-[4-(acridin-9-ylcarbonyl)piperazin-1-yl]phenyl}phosphate disodium salt], for which the EC50 in data set [1] (NCI-H460, 45 h) was determined as 0.067 µg/mL; in data set [2] (SK-OV-3, 45 h) it was 0.038 µg/mL; in data set [4] (HeLa, 45 h) it was 0.013 µg/mL; in data set [5] (SF-268, 45 h), 0.057 µg/mL. The same compound gave a solubility in the data set “physchem” of 9090 µg/mL.

Turning to `O=C(c1c2ccccc2nc2ccc(O)cc12)N1CCN(c2cccc(O)c2)CC1` [Compound 38, (2-Hydroxyacridin-9-yl)-[4-(3-hydroxyphenyl)piperazin-1-yl]methanone], the EC50 in data set [1] (setting [7]) was 0.214 µg/mL (≈ 0.536 µM); in data set [2] (setting [8]) it was 0.095 µg/mL (≈ 0.238 µM); in data set [4] (KB/HeLa cells, 45 h incubation), 0.125 µg/mL (≈ 0.313 µM); in data set [5] (SF-268 cells, 45 h incubation), 0.137 µg/mL (≈ 0.343 µM). For the same compound, the “Inhibition … using 30% MAPs, EC50” value in data set [6] is 4.57 µg/mL.

With `CC1(C)OCC(COC(=O)Oc2cccc(N3CCN(C(=O)c4c5ccccc5nc5ccccc45)CC3)c2)O1` (centres unmarked) [Compound 16, 3-[4-(Acridin-9-ylcarbonyl)piperazin-1-yl]phenyl 2,2-dimethyl-[1,3]-dioxolan-4-ylmethyl carbonate], the melting point is 107 to 108 °C. In data set [1] (setting [7]), the EC50 was 0.042 µg/mL (≈ 0.0775 µM). Also, in data set [2] (setting [8]), the EC50 came out at 0.026 µg/mL (≈ 0.048 µM). The EC50 in data set [4] (KB/HeLa cells, 45 h incubation) was 0.033 µg/mL (≈ 0.0609 µM). In addition, the EC50 in data set [5] (SF-268 cells, 45 h incubation) amounted to 0.043 µg/mL (≈ 0.0794 µM).

For the origin of these results see patent US20050009809A1, “Acridine derivatives and their use as medicaments” (priority 2003, published 2005).
